Results reported in the kinase profiling compilation of Christmann-Franck et al. (2016).
Several values for one entry are separate records, joined by “and”; a condition that tells them apart may be missing. Equal values may be shown once.

Assays:
Assay in all cases: radiometric filter-binding kinase assay, Kinase HotSpot
Conditions in all cases: compound 0.5 µM; ATP 10 µM
MAP3K9 (human) = MAP3K9 (human) (UniProt P80192)
EPHA5 (human) = EPHA5 (human) (UniProt P54756)
PHKG2 (human) = PHKG2 (human) (UniProt P15735)
CSK (human) = CSK (human) (UniProt P41240)
STK25 (human) = STK25 (human) (UniProt O00506)
MARK1 (human) = MARK1 (human) (UniProt Q9P0L2)
NEK1 (human) = NEK1 (human) (UniProt Q96PY6)
PRKCE (human) = PRKCE (human) (UniProt Q02156)
LRRK2 (human) = LRRK2 (human) (UniProt Q5S007)
DCLK2 (human) = DCLK2 (human) (UniProt Q8N568)
TSSK1B (human) = TSSK1B (human) (UniProt Q9BXA7)
PAK7 (human) = PAK7 (human) (UniProt Q9P286)
GRK4 (human) = GRK4 (human) (UniProt P32298)
GRK6 (human) = GRK6 (human) (UniProt P43250)
CDK1 CCNA2 (human) = CDK1 CCNA2 (human) (UniProt P06493+P20248)
CDK4 CCND3 (human) = CDK4 CCND3 (human) (UniProt P30281+P11802)
MARK2 (human) = MARK2 (human) (UniProt Q7KZI7)
ACVRL1 (human) = ACVRL1 (human) (UniProt P37023)
CDK4 CCND1 (human) = CDK4 CCND1 (human) (UniProt P24385+P11802)
PRKCG (human) = PRKCG (human) (UniProt P05129)
STK4 (human) = STK4 (human) (UniProt Q13043)
NEK3 (human) = NEK3 (human) (UniProt P51956)
TAOK1 (human) = TAOK1 (human) (UniProt Q7L7X3)
PASK (human) = PASK (human) (UniProt Q96RG2)
BLK (human) = BLK (human) (UniProt P51451)
MAP3K11 (human) = MAP3K11 (human) (UniProt Q16584)
PRKCB1 (human) = PRKCB1 (human) (UniProt P05771)
MAP3K3 (human) = MAP3K3 (human) (UniProt Q99759)
DAPK2 (human) = DAPK2 (human) (UniProt Q9UIK4)
CAMK4 (human) = CAMK4 (human) (UniProt Q16566)
IKBKE (human) = IKBKE (human) (UniProt Q14164)
AURKC (human) = AURKC (human) (UniProt Q9UQB9)
TNK2 (human) = TNK2 (human) (UniProt Q07912)
STK10 (human) = STK10 (human) (UniProt O94804)
NUAK2 (human) = NUAK2 (human) (UniProt Q9H093)
LIMK1 (human) = LIMK1 (human) (UniProt P53667)
INSR (human) = INSR (human) (UniProt P06213)
STK11 (human) = STK11 (human) (UniProt Q15831)
BMX (human) = BMX (human) (UniProt P51813)
DYRK4 (human) = DYRK4 (human) (UniProt Q9NR20)
PTK2B (human) = PTK2B (human) (UniProt Q14289)
LYN (human) = LYN (human) (UniProt P07948)

Sequence of CSK (human) (P41240 whole entry, looked up): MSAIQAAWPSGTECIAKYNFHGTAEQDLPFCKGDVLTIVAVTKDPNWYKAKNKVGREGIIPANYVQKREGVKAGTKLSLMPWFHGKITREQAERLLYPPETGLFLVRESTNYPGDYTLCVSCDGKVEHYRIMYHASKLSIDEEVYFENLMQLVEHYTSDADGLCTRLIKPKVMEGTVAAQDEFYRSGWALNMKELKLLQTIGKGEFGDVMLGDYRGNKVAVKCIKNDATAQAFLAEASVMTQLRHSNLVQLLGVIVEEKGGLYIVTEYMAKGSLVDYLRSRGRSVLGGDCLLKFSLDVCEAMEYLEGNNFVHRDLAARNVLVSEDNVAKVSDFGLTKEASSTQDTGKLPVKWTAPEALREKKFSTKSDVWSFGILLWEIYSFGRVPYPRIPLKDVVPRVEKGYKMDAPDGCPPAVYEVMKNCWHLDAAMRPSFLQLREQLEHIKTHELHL
Sequence of LRRK2 (human) (Q5S007 whole entry, looked up): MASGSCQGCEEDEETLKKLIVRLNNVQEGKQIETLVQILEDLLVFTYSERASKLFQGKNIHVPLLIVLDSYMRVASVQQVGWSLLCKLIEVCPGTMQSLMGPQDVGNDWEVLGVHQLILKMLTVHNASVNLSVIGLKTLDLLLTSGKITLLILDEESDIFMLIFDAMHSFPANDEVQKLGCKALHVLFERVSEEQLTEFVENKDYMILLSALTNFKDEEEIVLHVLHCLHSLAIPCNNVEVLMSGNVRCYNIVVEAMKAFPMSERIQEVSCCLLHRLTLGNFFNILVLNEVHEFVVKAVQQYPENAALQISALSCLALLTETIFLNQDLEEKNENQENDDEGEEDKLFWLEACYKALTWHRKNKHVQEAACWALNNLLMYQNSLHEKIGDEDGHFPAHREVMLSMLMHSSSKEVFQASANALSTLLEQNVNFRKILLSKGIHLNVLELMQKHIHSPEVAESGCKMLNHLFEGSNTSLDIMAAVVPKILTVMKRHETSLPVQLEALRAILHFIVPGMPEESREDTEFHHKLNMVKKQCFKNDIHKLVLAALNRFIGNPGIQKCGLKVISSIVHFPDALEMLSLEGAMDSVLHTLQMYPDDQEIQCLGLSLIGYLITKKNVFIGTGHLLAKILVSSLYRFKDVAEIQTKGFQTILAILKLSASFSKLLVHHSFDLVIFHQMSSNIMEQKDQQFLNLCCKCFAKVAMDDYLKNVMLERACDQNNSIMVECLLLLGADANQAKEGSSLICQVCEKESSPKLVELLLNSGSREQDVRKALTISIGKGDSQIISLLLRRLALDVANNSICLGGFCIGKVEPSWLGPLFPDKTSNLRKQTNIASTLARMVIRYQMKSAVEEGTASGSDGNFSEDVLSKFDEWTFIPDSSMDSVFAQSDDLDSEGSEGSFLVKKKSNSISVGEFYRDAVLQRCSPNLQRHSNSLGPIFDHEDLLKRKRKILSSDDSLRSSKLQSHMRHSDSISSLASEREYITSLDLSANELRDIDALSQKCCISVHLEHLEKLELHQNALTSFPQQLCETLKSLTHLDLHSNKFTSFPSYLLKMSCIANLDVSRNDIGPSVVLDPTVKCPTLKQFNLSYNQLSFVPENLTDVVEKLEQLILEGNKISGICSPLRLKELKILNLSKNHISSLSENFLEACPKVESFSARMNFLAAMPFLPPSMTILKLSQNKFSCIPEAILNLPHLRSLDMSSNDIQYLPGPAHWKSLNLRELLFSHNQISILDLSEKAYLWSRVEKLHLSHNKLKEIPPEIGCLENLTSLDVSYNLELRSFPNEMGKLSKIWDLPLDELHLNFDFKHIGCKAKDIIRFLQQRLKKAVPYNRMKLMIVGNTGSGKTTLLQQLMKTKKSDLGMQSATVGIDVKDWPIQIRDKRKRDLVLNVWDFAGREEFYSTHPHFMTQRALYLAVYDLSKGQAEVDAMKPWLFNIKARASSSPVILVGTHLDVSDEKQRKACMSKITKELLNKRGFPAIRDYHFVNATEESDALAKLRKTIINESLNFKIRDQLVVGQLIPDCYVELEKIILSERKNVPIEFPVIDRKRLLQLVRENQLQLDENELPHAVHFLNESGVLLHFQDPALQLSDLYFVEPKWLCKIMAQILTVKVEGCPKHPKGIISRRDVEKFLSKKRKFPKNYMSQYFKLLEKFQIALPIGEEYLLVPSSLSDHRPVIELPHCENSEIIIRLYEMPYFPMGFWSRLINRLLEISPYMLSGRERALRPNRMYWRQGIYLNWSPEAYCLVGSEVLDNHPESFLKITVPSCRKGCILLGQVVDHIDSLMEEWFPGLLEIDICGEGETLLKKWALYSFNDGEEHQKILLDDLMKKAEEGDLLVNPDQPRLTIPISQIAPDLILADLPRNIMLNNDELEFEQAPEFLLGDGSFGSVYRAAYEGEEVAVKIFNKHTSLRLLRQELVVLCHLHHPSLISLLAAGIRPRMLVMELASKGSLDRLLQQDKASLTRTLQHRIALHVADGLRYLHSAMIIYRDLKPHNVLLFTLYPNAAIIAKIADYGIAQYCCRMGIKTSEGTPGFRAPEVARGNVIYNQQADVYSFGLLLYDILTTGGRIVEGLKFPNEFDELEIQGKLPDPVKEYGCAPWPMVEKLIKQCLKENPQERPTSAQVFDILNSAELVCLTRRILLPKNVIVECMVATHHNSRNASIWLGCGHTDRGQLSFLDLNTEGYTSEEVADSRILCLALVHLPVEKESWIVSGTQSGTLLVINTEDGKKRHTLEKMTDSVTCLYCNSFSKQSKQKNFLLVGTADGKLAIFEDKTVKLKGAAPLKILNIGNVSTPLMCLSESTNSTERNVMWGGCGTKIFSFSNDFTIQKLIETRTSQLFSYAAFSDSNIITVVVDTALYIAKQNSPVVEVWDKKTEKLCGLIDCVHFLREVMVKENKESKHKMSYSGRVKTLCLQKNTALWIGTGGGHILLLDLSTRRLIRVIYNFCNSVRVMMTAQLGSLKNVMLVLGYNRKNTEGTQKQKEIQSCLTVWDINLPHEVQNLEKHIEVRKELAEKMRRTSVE
Sequence of TNK2 (human) (Q07912 whole entry, looked up): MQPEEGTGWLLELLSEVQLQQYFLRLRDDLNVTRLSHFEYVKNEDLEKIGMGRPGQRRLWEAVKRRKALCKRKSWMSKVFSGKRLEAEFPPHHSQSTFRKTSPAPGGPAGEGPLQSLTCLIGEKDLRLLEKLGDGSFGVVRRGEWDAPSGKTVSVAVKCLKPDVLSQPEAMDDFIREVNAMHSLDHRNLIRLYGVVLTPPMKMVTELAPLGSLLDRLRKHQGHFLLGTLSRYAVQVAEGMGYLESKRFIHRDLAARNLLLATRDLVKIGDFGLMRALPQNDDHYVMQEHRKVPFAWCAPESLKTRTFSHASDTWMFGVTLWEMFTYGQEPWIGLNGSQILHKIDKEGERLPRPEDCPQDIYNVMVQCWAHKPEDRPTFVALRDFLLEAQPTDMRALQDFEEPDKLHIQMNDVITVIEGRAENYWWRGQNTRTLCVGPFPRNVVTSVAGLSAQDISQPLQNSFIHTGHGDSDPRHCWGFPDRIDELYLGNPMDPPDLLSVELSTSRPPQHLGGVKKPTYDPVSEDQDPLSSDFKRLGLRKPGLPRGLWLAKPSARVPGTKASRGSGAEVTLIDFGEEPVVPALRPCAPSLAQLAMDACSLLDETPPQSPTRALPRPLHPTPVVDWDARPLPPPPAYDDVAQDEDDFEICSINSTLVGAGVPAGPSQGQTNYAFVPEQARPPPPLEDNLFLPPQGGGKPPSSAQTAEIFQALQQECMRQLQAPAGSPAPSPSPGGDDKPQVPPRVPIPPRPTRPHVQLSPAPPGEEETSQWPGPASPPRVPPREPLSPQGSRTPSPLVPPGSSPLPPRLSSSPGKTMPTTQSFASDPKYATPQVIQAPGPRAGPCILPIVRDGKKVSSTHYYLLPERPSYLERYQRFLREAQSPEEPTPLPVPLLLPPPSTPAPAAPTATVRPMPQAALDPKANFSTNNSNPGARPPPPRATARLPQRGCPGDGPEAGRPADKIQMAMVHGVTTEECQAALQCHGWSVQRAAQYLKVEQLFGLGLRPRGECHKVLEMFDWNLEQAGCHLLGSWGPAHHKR
Sequence of DAPK2 (human) (Q9UIK4 whole entry, looked up): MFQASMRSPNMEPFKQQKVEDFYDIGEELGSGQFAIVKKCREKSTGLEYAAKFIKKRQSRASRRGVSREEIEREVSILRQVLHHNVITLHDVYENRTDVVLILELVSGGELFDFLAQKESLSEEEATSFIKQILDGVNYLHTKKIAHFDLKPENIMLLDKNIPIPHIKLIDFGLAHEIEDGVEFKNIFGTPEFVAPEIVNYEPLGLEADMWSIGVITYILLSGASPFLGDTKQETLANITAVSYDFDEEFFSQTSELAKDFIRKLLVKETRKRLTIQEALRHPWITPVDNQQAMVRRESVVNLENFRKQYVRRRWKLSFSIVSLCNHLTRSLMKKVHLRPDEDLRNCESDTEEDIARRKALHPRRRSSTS
Sequence of AURKC (human) (Q9UQB9 whole entry, looked up): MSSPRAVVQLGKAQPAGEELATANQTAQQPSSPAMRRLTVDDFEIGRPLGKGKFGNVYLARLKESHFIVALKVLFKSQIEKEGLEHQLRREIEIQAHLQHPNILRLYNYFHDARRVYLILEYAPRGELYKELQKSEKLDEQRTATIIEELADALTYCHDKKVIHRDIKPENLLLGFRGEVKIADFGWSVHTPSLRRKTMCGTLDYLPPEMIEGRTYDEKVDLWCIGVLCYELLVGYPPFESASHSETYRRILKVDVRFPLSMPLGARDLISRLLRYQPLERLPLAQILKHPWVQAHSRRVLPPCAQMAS
Sequence of TSSK1B (human) (Q9BXA7 whole entry, looked up): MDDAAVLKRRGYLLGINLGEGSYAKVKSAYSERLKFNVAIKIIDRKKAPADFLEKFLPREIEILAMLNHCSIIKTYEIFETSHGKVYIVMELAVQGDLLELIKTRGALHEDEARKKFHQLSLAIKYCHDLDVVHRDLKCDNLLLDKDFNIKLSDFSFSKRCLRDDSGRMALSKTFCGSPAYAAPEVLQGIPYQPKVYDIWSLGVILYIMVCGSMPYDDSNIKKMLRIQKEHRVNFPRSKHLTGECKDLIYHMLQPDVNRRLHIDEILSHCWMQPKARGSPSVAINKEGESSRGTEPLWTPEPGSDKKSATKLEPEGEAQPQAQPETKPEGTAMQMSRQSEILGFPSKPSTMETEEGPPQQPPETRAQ

## O=C(Nc1ccc(Cl)cc1)c1ccccc1NCc1ccncc1
MAP3K9 (human)
  residual activity: 89%
EPHA5 (human)
  residual activity: 82.1%
PHKG2 (human)
  residual activity: 97.1%
CSK (human)
  residual activity: 101%
STK25 (human)
  residual activity: 91.6%
MARK1 (human)
  residual activity: 94.7%
NEK1 (human)
  residual activity: 96%
PRKCE (human)
  residual activity: 97%
LRRK2 (human)
  residual activity: 98.7%
DCLK2 (human)
  residual activity: 95.2%
TSSK1B (human)
  residual activity: 103%
PAK7 (human)
  residual activity: 79.4%
GRK4 (human)
  residual activity: 96.8%
GRK6 (human)
  residual activity: 101%
CDK1 CCNA2 (human)
  residual activity: 91.8%
CDK4 CCND3 (human)
  residual activity: 94.2%
MARK2 (human)
  residual activity: 92.7%
ACVRL1 (human)
  residual activity: 98.9%
CDK4 CCND1 (human)
  residual activity: 104%
PRKCG (human)
  residual activity: 102%
STK4 (human)
  residual activity: 98.7%
NEK3 (human)
  residual activity: 90.5%
TAOK1 (human)
  residual activity: 110%
PASK (human)
  residual activity: 97.1%
BLK (human)
  residual activity: 102%
MAP3K11 (human)
  residual activity: 89%
PRKCB1 (human)
  residual activity: 98.1%
MAP3K3 (human)
  residual activity: 96.2%
DAPK2 (human)
  residual activity: 98.4%
CAMK4 (human)
  residual activity: 101%
IKBKE (human)
  residual activity: 98.9%
AURKC (human)
  residual activity: 93.4%
TNK2 (human)
  residual activity: 99.3%
STK10 (human)
  residual activity: 81.8%
NUAK2 (human)
  residual activity: 137%
LIMK1 (human)
  residual activity: 83.4%
INSR (human)
  residual activity: 88%
STK11 (human)
  residual activity: 93.5%
BMX (human)
  residual activity: 90.5%
DYRK4 (human)
  residual activity: 104%
PTK2B (human)
  residual activity: 89.3%
LYN (human)
  residual activity: 75.1% and 93.7%

## COc1cc2ncnc(Nc3ccc(F)c(Cl)c3)c2cc1OCCCN1CCOCC1
MAP3K9 (human)
  residual activity: 110%
EPHA5 (human)
  residual activity: 95.8%
PHKG2 (human)
  residual activity: 93.9%
CSK (human)
  residual activity: 95.4%
STK25 (human)
  residual activity: 97.4%
MARK1 (human)
  residual activity: 116%
NEK1 (human)
  residual activity: 90.4%
PRKCE (human)
  residual activity: 97.3%
LRRK2 (human)
  residual activity: 108%
DCLK2 (human)
  residual activity: 101%
TSSK1B (human)
  residual activity: 90%
PAK7 (human)
  residual activity: 97.4%
GRK4 (human)
  residual activity: 91%
GRK6 (human)
  residual activity: 99.6%
CDK1 CCNA2 (human)
  residual activity: 101%
CDK4 CCND3 (human)
  residual activity: 101%
MARK2 (human)
  residual activity: 119%
ACVRL1 (human)
  residual activity: 96.9%
CDK4 CCND1 (human)
  residual activity: 94.3%
PRKCG (human)
  residual activity: 84.2%
STK4 (human)
  residual activity: 101%
NEK3 (human)
  residual activity: 94.4%
TAOK1 (human)
  residual activity: 103%
PASK (human)
  residual activity: 97.9%
BLK (human)
  residual activity: 87.7%
MAP3K11 (human)
  residual activity: 102%
PRKCB1 (human)
  residual activity: 95%
MAP3K3 (human)
  residual activity: 107%
DAPK2 (human)
  residual activity: 93.2%
CAMK4 (human)
  residual activity: 93.3%
IKBKE (human)
  residual activity: 89.9%
AURKC (human)
  residual activity: 89.7%
TNK2 (human)
  residual activity: 72.8%
STK10 (human)
  residual activity: 38.6%
NUAK2 (human)
  residual activity: 96%
LIMK1 (human)
  residual activity: 90%
INSR (human)
  residual activity: 107%
STK11 (human)
  residual activity: 106%
BMX (human)
  residual activity: 102%
DYRK4 (human)
  residual activity: 105%
PTK2B (human)
  residual activity: 98.9%
LYN (human)
  residual activity: 57.1% and 67.8%

## Cc1cc2ncc(-c3ccccc3)nc2cc1C
MAP3K9 (human)
  residual activity: 92.6%
EPHA5 (human)
  residual activity: 96.1%
PHKG2 (human)
  residual activity: 83.9%
CSK (human)
  residual activity: 96.5%
STK25 (human)
  residual activity: 92.5%
MARK1 (human)
  residual activity: 106%
NEK1 (human)
  residual activity: 96.1%
PRKCE (human)
  residual activity: 99.6%
LRRK2 (human)
  residual activity: 94.4%
DCLK2 (human)
  residual activity: 100%
TSSK1B (human)
  residual activity: 113%
PAK7 (human)
  residual activity: 96.9%
GRK4 (human)
  residual activity: 94.9%
GRK6 (human)
  residual activity: 103%
CDK1 CCNA2 (human)
  residual activity: 94.4%
CDK4 CCND3 (human)
  residual activity: 94.6%
MARK2 (human)
  residual activity: 84.5%
ACVRL1 (human)
  residual activity: 97.9%
CDK4 CCND1 (human)
  residual activity: 101%
PRKCG (human)
  residual activity: 96.9%
STK4 (human)
  residual activity: 98.6%
NEK3 (human)
  residual activity: 93.7%
TAOK1 (human)
  residual activity: 94.3%
PASK (human)
  residual activity: 82.1%
BLK (human)
  residual activity: 96.5%
MAP3K11 (human)
  residual activity: 97.3%
PRKCB1 (human)
  residual activity: 103%
MAP3K3 (human)
  residual activity: 103%
DAPK2 (human)
  residual activity: 92.6%
CAMK4 (human)
  residual activity: 98.3%
IKBKE (human)
  residual activity: 101%
AURKC (human)
  residual activity: 92.1%
TNK2 (human)
  residual activity: 98.4%
STK10 (human)
  residual activity: 90.7%
NUAK2 (human)
  residual activity: 124%
LIMK1 (human)
  residual activity: 102%
INSR (human)
  residual activity: 94%
STK11 (human)
  residual activity: 94%
BMX (human)
  residual activity: 90%
DYRK4 (human)
  residual activity: 90.3%
PTK2B (human)
  residual activity: 92.1%
LYN (human)
  residual activity: 100% and 98.2%

## O=C1Nc2ccccc2/C1=C\c1c(Cl)[nH]c2ccccc12
MAP3K9 (human)
  residual activity: 97.9%
EPHA5 (human)
  residual activity: 83.4%
PHKG2 (human)
  residual activity: 84.2%
CSK (human)
  residual activity: 101%
STK25 (human)
  residual activity: 97.7%
MARK1 (human)
  residual activity: 96%
NEK1 (human)
  residual activity: 96.7%
PRKCE (human)
  residual activity: 95.1%
LRRK2 (human)
  residual activity: 102%
DCLK2 (human)
  residual activity: 93.5%
TSSK1B (human)
  residual activity: 101%
GRK4 (human)
  residual activity: 102%
GRK6 (human)
  residual activity: 107%
CDK1 CCNA2 (human)
  residual activity: 103%
CDK4 CCND3 (human)
  residual activity: 97.4%
MARK2 (human)
  residual activity: 94.7%
ACVRL1 (human)
  residual activity: 99.8%
CDK4 CCND1 (human)
  residual activity: 98.4%
PRKCG (human)
  residual activity: 89.2%
STK4 (human)
  residual activity: 91%
NEK3 (human)
  residual activity: 91.2%
TAOK1 (human)
  residual activity: 100%
PASK (human)
  residual activity: 89.3%
BLK (human)
  residual activity: 95.4%
MAP3K11 (human)
  residual activity: 100%
PRKCB1 (human)
  residual activity: 105%
MAP3K3 (human)
  residual activity: 112%
DAPK2 (human)
  residual activity: 96.8%
CAMK4 (human)
  residual activity: 102%
IKBKE (human)
  residual activity: 98%
AURKC (human)
  residual activity: 89.5%
TNK2 (human)
  residual activity: 98.4%
STK10 (human)
  residual activity: 90.9%
NUAK2 (human)
  residual activity: 106%
LIMK1 (human)
  residual activity: 109%
INSR (human)
  residual activity: 91.2%
STK11 (human)
  residual activity: 83.4%
BMX (human)
  residual activity: 99.8%
DYRK4 (human)
  residual activity: 97.4%
PTK2B (human)
  residual activity: 95.5%
LYN (human)
  residual activity: 93.6% and 99.7%
